Reference: patent US20230265167A1, “COMPOSITIONS HAVING NEUROREGENERATIVE APPLICATIONS” (GRIFOLS WORLDWIDE OPERATIONS LIMITED, priority 2020, published 2023)
“Also recorded” adds a separate entry of the source.

Experiments:
SH-SY5Y cells = test: Neurite outgrowth (differentiation) in SH-SY5Y cells, Tubulin Tracker imaging; format: cell-based, human
Procedure: Transferrin is utilized in cell culture and in-vivo to deliver iron as a nutrient to cells. This is typically accomplished through the actions of holo-transferrin (HoloTf) binding to, and endocytosis by, its cognate receptor CD71, the transferrin receptor 1 (TfR1). Transferrin is typically believed to provide cells with iron as a means to promote and sustain metabolic activity. […] Induction of neuronal differentiation was assessed by morphological parameters of neurite formation (a key element typically used as a marker of neuronal differentiation, neuronal health, and function) according to the procedures of Agholme, 2010. J. of Alzheimer's Disease. Vol. 20:1p 069-108; and Dyberg et al., 2017. PNAS Vol 114 (32), E6603-E6612.
Undifferentiated SH-SY5Y cells were seeded into 96 well clear bottom plates in media containing 0.1% FBS. A serum-free base media was utilized as recommended by the supplier for SH-SY5Y cells (Sigma, Cat #94030304-1VL). Twenty-four hours after seeding cells, a 3× stock solution of ApoTf, final concentrations indicated on the x-axis, in serum free base media was added to the cells. ApoTf was obtained and purified from pooled human plasma and dosed at a final concentration of 0.2 mg/mL.
Cells were allowed to differentiate for 6 days. Neurite growth was assessed by imaging and image analysis. At the time of analysis, a 10× solution of Tubulin Tracker (Molecular Probes, T34075) and Hoechst 33342 (Molecular Probes #H3570) nuclear stain was prepared.
Briefly, Tubulin Tracker dissolved in DMSO was diluted 1:1 with Pluronic F-127 and further diluted into HBSS to generate a 10× solution. Hoechst 33342 was added to the HBSS-Tubulin Tracker solution at 10 μg/mL to generate a 10× nuclear stain. The 10× staining solution (10 μL) was added directly to treated assay wells and incubated at 37° C. for 30 minutes. Following incubation, 110 μL of 0.4% Trypan Blue was added directly to assay wells and imaged on a Molecular Devices Nano imaging instrument. Nine images/well were acquired in the blue (Nuclei) and green (Tubulin) fluorescent channels for each image.
After obtaining images, the MetaExpress Neurite Outgrowth analysis module (Molecular Devices) was used to identify cells, cell bodies, and quantify neurites. The total number of neurite branches were divided by the total number of cells imaged to account for different numbers of cells in each test well. The Outgrowth Fold Change was determined by setting the untreated control cells to a value of 1 with all other treatments shown relative to untreated control.
Undifferentiated SH-SY5Y cells were seeded and treated as described in Example 1. Neurite growth was assessed by imaging and image analysis. At the time of analysis, a 10× solution of Tubulin Tracker (Molecular Probes, T34075) and Hoechst 33342 (Molecular Probes #H3570) nuclear stain was prepared. Briefly, Tubulin Tracker dissolved in DMSO was diluted 1:1 with Pluronic F-127 and further diluted into HBSS to generate a 10× solution. Hoechst 33342 was added to the HBSS-Tubulin Tracker solution at 10 μg/mL to generate at 10× nuclear stain. The 10× staining solution (10 μL) was added directly to treated assay wells and incubated at 37° C. for 30 minutes. Following incubation, 110 μL of 0.4% Trypan Blue was added directly to assay wells and imaged on a Molecular Devices Nano imaging instrument. Nine images/well were acquired in the blue (Nuclei) and green (Tubulin) fluorescent channels for each image. After obtaining images, the MetaExpress Neurite Outgrowth analysis module (Molecular Devices) was used to identify cell bodies and quantify neurites. The total number of neurite branches were divided by the total number of cells imaged to account for different numbers of cells. The Outgrowth Fold Change was determined by setting the untreated control to a value of 1 with all other treatments shown relative to untreated control. ApoTf was obtained and purified from pooled human plasma and dosed at a final concentration of 0.2 mg/mL. […]

[1] = test system: C57BL/6J mice with transient MCAo; test: Rotarod test after transient MCAo; format: in vivo, mouse; conditions: FIG. 10B, vs saline
Procedure: C57BL/6J mice (ca. 20 g) were anaesthetized under isoflurane and, after dissection, a 6.0 silicon-coated monofilament suture was inserted into the external carotid artery to occlude the middle cerebral artery (MCAo). The occlusion was carried out for 60 minutes under temperature control.
Only animals with a ‘neuroscore’ of 4 or greater were considered for further testing (n=8-10 animals/group). At six hours post-occlusion, mice were injected daily with 350 mg/kg of Apo-transferrin (i.p.) or an equal volume of saline for a total of seven days, as well as with 50 mg/kg Bromodeoxyuridine (BrdU; Sigma-Aldrich Chemical, St. Louis, Mo.), both articles delivered by intraperitoneal administration. Weight changes were monitored daily.
Mice were prepared as indicated in Example 9 above and were subjected to assessments at 3 days and 1, 2, 3, 4 weeks post-MCAo, as indicated (n=8-10 animals/group). Motor coordination (i.e. equilibrium behavior and locomotor ability as a function of cortico-striatal function) was assessed using a rotarod test. Learning and memory capacity were measured using the NORT (novel object recognition test; for example, Anglada-Huguet et al., 2014, Molecular Neurobiology, vol. 49, pages 784-795; Denninger et al., 2018, J. Vis. Exp., vol. 141, e58593).
The time that it takes an animal to fall (Latency to fall) from the rotarod is shown vs time after MCAo. […]

rat model of stroke = conditions: vs control rats; cited from earlier work

apo-transferrin: iron-free form of transferrin protein, obtained and purified from pooled human plasma
neurite outgrowth (Outgrowth Fold Change) (SH-SY5Y cells; FIG. 1A, dose response up to 0.8 mg/mL, 6 days): able to induce neurite outgrowth in a dose dependent manner | neurite/tubulin outgrowth, visual comparison to untreated control (SH-SY5Y cells; FIG. 1C, 0.1 mg/mL): promoting induction of neurite/tubulin outgrowth | neurite outgrowth / differentiation versus concentration (SH-SY5Y cells; FIG. 3A, DFO versus ApoTf): continues to increase differentiation even up to 9.9 μM | neurogenesis (neurite outgrowth) of SH-SY5Y (SH-SY5Y cells; FIG. 3B, proteins at 0.2 mg/mL): did induce neurogenesis | neurogenic effect, ApoTf in combination with Y-27632 (SH-SY5Y cells; FIG. 8, ApoTf 0.1 mg/mL plus Y-27632 50 μM): the neurogenic effect was synergistic | differentiation / neurite outgrowth, combination with neurotrophic factors (SH-SY5Y cells; FIGS. 7A-7D, ApoTf 0.1 mg/mL plus factor): synergistic effect | motor and balance skills (Latency to fall from rotarod) [1]: better motor skills; also recorded: increased motor and balance skills | motor and balance skills (Latency to fall from rotarod) ([1]; listed as apoTf): better overall abilities to remain on the rotarod | volume of the infarcted area (neuroprotective effect) (rat model of stroke): decrease in the volume of the infarcted area
